7 compounds from patent US5260425A, “Anthracycline derivatives having cytostatic activity” (priority 1988, dated 1993) can be followed below.

In series [1] the test system is L1210 mouse leukemia cells. The experiment in a line: Formation of colonies of L1210 leukemia cells in soft agar (cytotoxicity in vitro). The format is cell-based. Particulars: Mus musculus. The procedure: The cytostatic activity of the compounds according to the invention has been tested using L1210 mouse leukemia cells. Employed for this purpose was the formation of colonies of L1210 leukemia cells in agar plates. This method is used to detect the effect of the test substances on the growth behavior of the cells over 1 hour or over several generations. In this connection, with a cell cycle time of 10-12 hours about 14 consecutive generations are observed in the 7 days the test lasts. In this test, the substances having cytostatic activity according to the invention bring about a reduction in the number of colonies to be observed by comparison with an untreated control sample.
Procedure for determining the formation of colonies of L1210 leukemia cells in soft agar
500 leukemia cells per plate were incubated with various concentrations of the test substance at 37° C. for 1 hour. The cells were then washed twice with McCoy5A medium and finally, after addition of 0.3% agar, poured into Petri dishes. Controls were incubated only with fresh medium. In place of the incubation for one hour, in some cases various concentrations and test substances were mixed with the upper agar layer in order in this way to achieve continuous exposure of the cells throughout the incubation time. After the agar had solidified, the plates were incubated in an incubator at 37° C. for 7 days (5% by volume CO2, 95% relative humidity). The number of colonies which had been produced with a diameter of more than 60 μm was then counted. The results have been reported as the number of colonies in treated agar plates as a percentage of the untreated control. The IC50 was determined as a measure of the activity of the substance from the dose-effect plot obtained in this way. The results for the compounds described herein, by comparison with adriamycin, are compiled in Table 1.

Series [2] relates to L1210 leukemia. Put plainly: In vivo activity on L1210 leukemia of the mouse (antitumor activity T/C). The following applies: for response vs control in vivo at 2.8 mg/kg: dose 2.80 mg/kg. The procedure: Ascites fluid is removed from DBA2 mice (female, 18-20 g) under sterile conditions 7 days after inoculation of tumor cells. The ascites is washed three times with PBS (phosphate-buffered saline), counted and adjusted to a cell count of 10^6 in 0.2 ml of PBS.
10^6 cells, suspended in 0.2 ml of PBS, are then injected intraperitoneally into DBF1 mice (female, 18-20 g). 6 animals per group are used for each substance concentration and as controls.
a) The animals are weighed on days 1 and 5 after injection of the test substance. A weight loss of more than 20% on day 5 is regarded as an indicator of a toxic effect of the substance.
b) At the end of the experiment (death of all animals or surviving animals on day 60) the mean survival time of the animals in the particular groups is determined as long as at least 65% of the animals were still alive on day 5 of the experiment. The mean survival time is determined only for animals which die during the course of the experiment. Long-term survivors (LTS) are not included in this calculation and are reported separately.
The antitumor activity (T/C) for the particular substance concentration is determined from the mean survival time (MSTT) in the treated groups and in the control groups (MSTC) as a percentage of the untreated controls in accordance with the following formula: [formula]
The T/C values and the treatment regimen employed in each case are compiled in Table 3, together with the indicative toxicity. T/C values greater than 125% are regarded as an indicator of a significant antitumor activity of the test substance.

The subject of series [3] is sensitive and resistant L1210 leukemia cells. The experiment in a line: Proliferation test (MTT reduction), cross-resistance to doxorubicin/adriamycin in vitro. It is filed as cell-based, mouse. The following applies: for Cross-resistance to doxorubicin (in words): L1210, MTT, in vitro; for Degree of resistance of the cell / Cross-resistance to adriamycin (degree of cross-resistance): MTT, 3d; for Degree of resistance of the cell: IC50 resistant subline related to IC50 sensitive subline; for Cross-resistance to adriamycin (degree of cross-resistance): adriamycin = 100.0. As to the method:
L1210, A 549 or HT 29 in the exponential phase of growth are incubated in a cell density of 5×10^3 cells/ml in RPMI 1640 in a 96-well microtiter plate with various concentrations of the test substance at 37° C., 5% CO2 and 95% relative humidity for 72 h. Control experiments receive merely growth medium in place of the test substance. Quadruplicate determinations are set up for each test substance and for the control. After incubation for 65 h, 50 μl of an MTT solution (2.5 mg/ml; MTT=3-(4,5-dimethylthiazol-2-yl)-2,5-diphenyltetrazoliumbromide) in phosphate-buffered saline) are added. MTT is reduced to a dark red insoluble formazan dyestuff in the presence of live cells. This reaction is complete after 7 h (L1210 cells) or after 24 h (A 549, HT 29 cells), and the supernatant medium is carefully removed by aspiration. The insoluble dyestuff is dissolved by addition of 100 μl of DMSO (dimethyl sulfoxide) and the extinction of the resulting solution at a wavelength of 492 nm is then measured for each well in a multiscan 340 CC photometer from Flow.
The ratio of the extinctions for treated and untreated cells provides a dose-effect plot from which the concentration which just kills 50% of the cells (IC50) can be read off. The coefficient of variation for repeat investigations is less than 15%.
The cross-resistance between the particular test compound and doxorubicin as standard compound is determined with the aid of the MTT test (see above for method) on sensitive and resistant L1210 leukemia cells.
The resistant cell line was established by incubation of a sensitive subline with the reference compound in concentrations which increased stepwise.
The IC50 of the test compound on the resistant subline related to the IC50 of the sensitive subline provides both the degree of resistance for the test Compound (DR(T)) and that for the reference compound (DR(R)) in accordance with the formula [formula]
In addition, the degree of cross-resistance (DCR) for the test compound is calculated in accordance with the formula [formula]
In the case where the loss of effect of the test compound on the resistant line in relation to the sensitive line is greater than that of the reference compound it is possible for the degree of cross-resistance to be above 100%.

A short description of series [4]: Determination of the indicative toxicity. The following applies: mouse, in vivo, ip; 3xip,q3d (three intraperitoneal administrations, 3 days interval); survival day 14. As to the method: To determine the indicative toxicity, NMRI mice receive an intraperitoneal injection of various doses of the test substance dissolved in 0.5 ml of 5% strength glucose solution on day 0. Control groups receive merely 0.5 ml of 5% strength glucose solution. 5 mice are used for each concentration of the test substance. The number of mice surviving on day 14 is determined, and from this the LD5, LD50 and LD95 are determined by the Litchfield-Wilcoxon method. The toxicity (LD50 (mg/kg)) of the compounds described here is summarized in Table 3 by comparison with adriamycin.

The nature of series [5]: Determination of the indicative toxicity. Particulars: mouse, in vivo; 3xiv,q3d (three intravenous administrations, 3 days interval); survival day 14.
The mark [6] stands for this setting: L1210, 168 h, read-out: IC50, continuous incubation, continuous incubation, 7 days, L1210 colonies in agar.
Setting [7] is: L1210, read-out: IC50, 1 h incubation, 1 h incubation, then 7 days, L1210 colonies in agar.
Setting [8] is: Mus musculus, L1210, iv, read-out: T/C, L1210-leukemia in vivo.
Where [9] appears, read: 168 h, continuous incubation, 7 days, L1210 colonies in agar, read-out: IC50, continuous incubation.
[10] abbreviates: 1 h incubation, then 7 days, L1210 colonies in agar, read-out: IC50, 1 h incubation.

Values after ≈ are worked out from the molar mass of the structure shown. Read-outs that look alike come from different tables or passages of the source.

Consider `C=CCN(C)[C@H]1C[C@H](O[C@H]2C[C@](O)(CC)[C@H](O)c3c(O)c4c(c(O)c32)C(=O)c2c(O)cccc2C4=O)O[C@@H](C)[C@H]1O` [Compound 1, 7-O-(3'-N-Allyl-3'-N-methyl-alpha-L-daunosaminyl)-β-rhodomycinone], for which the IC50 in series [1] (setting [6]) came out at 0.01 µg/mL (≈ 0.0176 µM). For the same compound, the half-maximal inhibitory concentration (IC50) in series [1] (setting [7]) turned out to be 0.08 µg/mL (≈ 0.14 µM). For the same compound, in series [2] (Mus musculus, L1210, ip, read-out: T/C, L1210-leukemia in vivo), the response vs control in vivo at 1.19 mg/kg amounted to 200%. Further, in series [2] (setting [8]), the response vs control in vivo at 1 mg/kg was 146%. Moreover, in series [3], the “Cross-resistance to doxorubicin (in words)” value was “not cross-resistant to doxorubicin”, the “Degree of resistance of the cell” value is 10.0 and the “Cross-resistance to adriamycin (degree of cross-resistance)” value (shortened to “Cross-resistance to adriamycin”) amounted to 19.0%. Moreover, the LD50 at 336 h in series [4] is 1 to 5 mg/kg.

Turning to `C#CCN(C)[C@H]1C[C@H](O[C@H]2C[C@](O)(CC)[C@H](O)c3c(O)c4c(c(O)c32)C(=O)c2c(O)cccc2C4=O)O[C@@H](C)[C@H]1O` [Compound 2, 7-O-(3'-N-methyl-3'-N-proparayl-alpha-L-daunosaminyl)-β-rhodomycinone], the values for the IC50 in series [1] (setting [9]) and in series [1] (setting [10]) were 0.08 µg/mL (≈ 0.141 µM) and 0.3 µg/mL (≈ 0.529 µM), respectively. For the same compound, the response vs control in vivo at 1.2 mg/kg in series [2] (Mus musculus, L1210, iv, 3xiv,q3d, dose 1.20 mg/kg, % of the control) was determined as 144%. In series [5], this compound yielded an LD50 at 336 h of 2 to 5 mg/kg.

For `CC[C@@]1(O)C[C@H](O[C@H]2C[C@H](N(C)Cc3ccsc3)[C@H](O)[C@H](C)O2)c2c(O)c3c(c(O)c2[C@H]1O)C(=O)c1cccc(O)c1C3=O` [Compound 12, 7-O-(3'-N-Methyl-3'-N-(3-thenyl)-alpha-L-daunosaminyl)-β-rhodomycinone], the half-inhibitory concentration (IC50) came out at 0.032 µg/mL (≈ 0.0511 µM) in series [1] (setting [6]) and 0.17 µg/mL (≈ 0.272 µM) in series [1] (setting [7]). In series [5], the LD50 at 336 h was in the range of 2 to 5 mg/kg.

`CC[C@@]1(O)C[C@H](O[C@H]2C[C@H](N(C)Cc3ccco3)[C@H](O)[C@H](C)O2)c2c(O)c3c(c(O)c2[C@H]1O)C(=O)c1cccc(O)c1C3=O` [Compound 6, 7-O-(3'-N-(2-Furfuryl)-3'-N-methyl-alpha-L-daunosaminyl)-β-rhodomycinone]: the 50% inhibitory concentration (IC50) in series [1] (setting [9]) turned out to be 0.03 µg/mL (≈ 0.0492 µM). In series [1] (setting [10]), the IC50 is 0.038 µg/mL (≈ 0.0623 µM). In series [2] (Mus musculus, L1210, ip, 3xip,q3d, % of the control), this compound returned a response vs control in vivo at 2.8 mg/kg of 141%. This compound also displayed a response vs control in vivo at 2.8 mg/kg in series [2] (Mus musculus, L1210, iv, 3xiv,q3d, % of the control) of 129%. Besides, in series [3], the “Cross-resistance to doxorubicin (in words)” value was “not cross-resistant to doxorubicin”, the “Degree of resistance of the cell” value turned out to be 2.0 and the “Cross-resistance to adriamycin” value is 2.0%. For the same compound, the LD50 at 336 h in series [4] lay in the range of 1 to 5 mg/kg.

`COc1cccc2c1C(=O)c1c(O)c3c(c(O)c1C2=O)C[C@@](O)(C(=O)CO)C[C@@H]3O[C@H]1C[C@H](N)[C@H](O)[C@H](C)O1` [Adriamycin, reference compound]: the IC50 in series [1] (setting [9]) worked out at 0.02 µg/mL (≈ 0.0368 µM). The IC50 in series [1] (setting [10]) was 0.04 µg/mL (≈ 0.0736 µM). Besides, the “Animals recovered (longterm survivors)” value in series [2] (3xip,q3d, L1210-leukemia in vivo) was “Two of 6”. In series [3], the “Degree of resistance of the cell” value is recorded as 60-80 and the “Cross-resistance to adriamycin” value is given as 100.0%. Further, the 50% lethal dose (LD50) at 336 h in series [4] turned out to be 2.7 mg/kg.

As to `CC[C@@]1(O)C[C@H](O[C@H]2C[C@H](N(C)CC3CO3)[C@H](O)[C@H](C)O2)c2c(O)c3c(c(O)c2[C@H]1O)C(=O)c1c(O)ccc(O)c1C3=O` (stereo partly drawn) [Compound 14m, 7-O-(3'-N-Glycidyl-3'-N-methyl-alpha-L-daunosaminyl)-β-isorhodomycinone], the IC50 in series [1] (setting [6]) is 0.005 µg/mL (≈ 0.00831 µM); in series [1] (setting [7]), 0.0024 µg/mL (≈ 0.00399 µM). The response vs control in vivo at 0.13 mg/kg in series [2] (setting [8]) was found to be 104%. Also, in series [5], the 50% lethal dose (LD50) at 336 h is 0.3 to 0.75 mg/kg.

In the case of `CC[C@@]1(O)C[C@H](O[C@H]2C[C@H](N(C)CC(N)=O)[C@H](O)[C@H](C)O2)c2c(O)c3c(c(O)c2[C@H]1O)C(=O)c1cccc(O)c1C3=O` [Compound 7, 7-O-(3'-N-Acetamido-3'-N-methyl-alpha-L-daunosaminyl)-β-rhodomycinone], the IC50 in series [1] (setting [9]) is 0.084 µg/mL (≈ 0.143 µM); in series [1] (setting [10]) it was 0.24 µg/mL (≈ 0.409 µM). This compound had a response vs control in vivo at 11.2 mg/kg in series [2] (Mus musculus, L1210, iv, 3xiv,q3d, dose 11.2 mg/kg, % of the control) of 142%. For the same compound, the LD50 at 336 h in series [4] is 2 to 5 mg/kg.

What is called IC50 is the concentration that inhibits the measured activity by half. In general, LD50 refers to the dose at which mortality reaches 50%.
